ChEMBL document CHEMBL1135397, “Novel 1-hydroxyazole bioisosteres of glutamic acid. Synthesis, protolytic properties, and pharmacology” (J Med Chem, 2002)

Experiments:
[1] = biological target: Excitatory amino acid transporter 1 (Homo sapiens, UniProt P43003); assay: Binding affinity for Excitatory amino acid transporter 1 (EAAT-1) in Glu uptake system
[2] = biological target: Excitatory amino acid transporter 2 (Homo sapiens, UniProt P43004); assay: Binding affinity for Excitatory amino acid transporter 2 (EAAT-2) in Glu uptake system
[3] = biological target: T1, Excitatory amino acid transporter 3 (Homo sapiens, UniProt P43005); assay: Binding affinity for Excitatory amino acid transporter 3 (EAAT-3) in Glu uptake system
T1 sequence (P43005 whole entry): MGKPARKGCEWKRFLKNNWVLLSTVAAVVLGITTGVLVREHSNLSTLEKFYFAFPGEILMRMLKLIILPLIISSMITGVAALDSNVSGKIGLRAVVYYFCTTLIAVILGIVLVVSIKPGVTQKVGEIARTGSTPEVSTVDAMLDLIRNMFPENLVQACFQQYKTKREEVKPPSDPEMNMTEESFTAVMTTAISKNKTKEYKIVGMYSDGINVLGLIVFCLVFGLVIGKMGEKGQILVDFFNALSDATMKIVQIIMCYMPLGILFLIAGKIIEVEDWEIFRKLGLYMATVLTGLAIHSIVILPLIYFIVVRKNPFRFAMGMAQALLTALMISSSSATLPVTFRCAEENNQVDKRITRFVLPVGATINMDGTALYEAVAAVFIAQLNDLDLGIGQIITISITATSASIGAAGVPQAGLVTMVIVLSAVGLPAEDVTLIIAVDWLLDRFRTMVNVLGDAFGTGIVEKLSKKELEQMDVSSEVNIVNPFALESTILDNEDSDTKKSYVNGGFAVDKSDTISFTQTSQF

[4] = Measure of synaptosomal Glu uptake system using [3H]- -D-aspartic acid as radioligand
[5] = biological target: Glutamate receptor ionotropic, kainate; assay: Binding affinity for Ionotropic glutamate receptor using [3H]- kainic acid; type: protein-complex assay, Rattus norvegicus
[6] = biological target: Glutamate NMDA receptor; assay: Binding affinity for N-methyl-D-aspartate glutamate receptor (NMDA) using [3H]- CPP; type: protein-complex assay, Rattus norvegicus
[7] = organism: Rattus norvegicus; assay: EC50 value was measured in rat cortical wedge preparation; type: functional
[8] = biological target: Glutamate receptor ionotropic, AMPA (Rattus norvegicus, UniProt P19490+P19491+P19492+P19493)
[9] = physchem
[10] = physchem; remark: listed apart in the source
[11] = physchem; remark: listed apart in the source
[12] = Measure of synaptosomal Glu uptake system using [3H]- -D-aspartic acid as radioligand.; type: functional

Excitatory amino acid transporter 1, sequence (P43003 whole entry): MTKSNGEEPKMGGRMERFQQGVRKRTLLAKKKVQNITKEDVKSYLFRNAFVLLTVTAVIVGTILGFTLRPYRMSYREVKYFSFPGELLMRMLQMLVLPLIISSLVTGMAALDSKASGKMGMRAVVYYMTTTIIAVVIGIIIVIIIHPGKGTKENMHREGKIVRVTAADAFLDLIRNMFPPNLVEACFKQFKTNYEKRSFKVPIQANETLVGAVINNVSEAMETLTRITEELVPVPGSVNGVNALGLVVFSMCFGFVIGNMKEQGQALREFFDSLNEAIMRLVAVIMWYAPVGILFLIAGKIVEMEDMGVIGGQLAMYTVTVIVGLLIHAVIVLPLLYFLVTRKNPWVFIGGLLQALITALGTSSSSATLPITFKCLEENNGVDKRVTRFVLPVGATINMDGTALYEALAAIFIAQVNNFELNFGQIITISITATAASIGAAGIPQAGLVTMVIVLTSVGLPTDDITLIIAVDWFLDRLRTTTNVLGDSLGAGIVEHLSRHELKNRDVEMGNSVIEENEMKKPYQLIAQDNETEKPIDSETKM
Excitatory amino acid transporter 2, sequence (P43004 whole entry): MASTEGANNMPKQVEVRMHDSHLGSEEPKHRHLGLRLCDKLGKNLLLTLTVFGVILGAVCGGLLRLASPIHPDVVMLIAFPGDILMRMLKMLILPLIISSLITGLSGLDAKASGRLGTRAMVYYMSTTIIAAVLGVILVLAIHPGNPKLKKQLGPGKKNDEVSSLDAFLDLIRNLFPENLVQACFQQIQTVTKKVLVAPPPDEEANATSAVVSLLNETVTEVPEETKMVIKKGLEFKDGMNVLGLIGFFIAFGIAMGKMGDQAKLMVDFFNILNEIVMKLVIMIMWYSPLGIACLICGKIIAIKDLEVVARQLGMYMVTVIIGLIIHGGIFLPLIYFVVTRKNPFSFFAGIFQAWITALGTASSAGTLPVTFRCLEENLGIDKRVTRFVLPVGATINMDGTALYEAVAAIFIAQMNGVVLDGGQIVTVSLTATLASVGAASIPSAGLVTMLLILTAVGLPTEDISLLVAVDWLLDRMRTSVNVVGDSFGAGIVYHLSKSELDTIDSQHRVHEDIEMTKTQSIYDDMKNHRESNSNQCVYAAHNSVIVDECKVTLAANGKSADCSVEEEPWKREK

SMILES	IC50 [1] [µM]	IC50 [2] [µM]	IC50 [3] [µM]	IC50 [4] [µM]	IC50 [5] [µM]	IC50 [6] [µM]	EC50 [7] [µM]	IC50 [8] [µM]	pKa [9]	pKa [10]	pKa [11]	IC50 [12] [µM]
NC(Cc1cncn1O)C(=O)O (stereo not drawn)	> 1000	> 1000	> 1000	> 200	> 100	> 100	> 1000	> 100	–	–	–	–
Cc1cnc(CC(N)C(=O)O)n1O (stereo not drawn)	> 1000	> 1000	> 1000	> 200	> 100	> 100	> 1000	> 100	–	–	–	–
Cc1ncc(CC(N)C(=O)O)n1O (stereo not drawn)	> 1000	> 1000	> 1000	> 200	> 100	> 100	> 1000	> 100	–	–	–	–
NC(Cc1nccn1O)C(=O)O (stereo not drawn)	> 1000	> 1000	> 1000	> 200	> 100	> 100	> 1000	> 100	–	–	–	–
Cc1nnn(O)c1CC(N)C(=O)O (stereo not drawn)	> 1000	490	> 1000	> 200	90	> 100	15	0.13	9.24	5.07	1.48	–
Cc1cnn(O)c1CC(N)C(=O)O (stereo not drawn)	> 1000	> 1000	> 1000	> 200	> 100	> 100	586	2.6	9.81	5.89	2.05	–
NC(Cc1conc1O)C(=O)O (stereo not drawn)	270	240	> 1000	> 200	> 100	> 100	900	0.27	–	–	–	–
NC(Cc1ccnn1O)C(=O)O (stereo not drawn)	> 1000	430	> 1000	> 200	> 100	> 100	280	2.7	9.48	5.78	1.78	–
NC(Cc1cnnn1O)C(=O)O (stereo not drawn)	100	300	> 1000	93	47	> 100	> 1000	0.15	–	–	–	–
Cc1ncn(O)c1CC(N)C(=O)O (stereo not drawn)	> 1000	> 1000	> 1000	> 200	> 100	> 100	> 1000	> 100	10.2	8.82	2.81	–
Cc1onc(O)c1CC(N)C(=O)O [(R,S)-AMPA]	> 1000	> 1000	> 1000	–	–	–	–	–	–	5.12	1.94	> 200
